Data: the NIST ThermoML archive (doi:10.1021/je034087q)

Experiment: xn = mol fraction of the nth substance listed

CCCCC [pentane] + O=C=O
Settings	mass density [kg/m3]
312.35 K, 7770 kPa, Fluid (supercritical or subcritical phases), x2 = 0.96	475
312.35 K, 7780 kPa, Fluid (supercritical or subcritical phases), x2 = 0.96	479
312.35 K, 7790 kPa, Fluid (supercritical or subcritical phases), x2 = 0.96	482
312.35 K, 7800 kPa, Fluid (supercritical or subcritical phases), x2 = 0.96	488
312.35 K, 7810 kPa, Fluid (supercritical or subcritical phases), x2 = 0.96	491
312.35 K, 7840 kPa, Fluid (supercritical or subcritical phases), x2 = 0.96	501
312.35 K, 7870 kPa, Fluid (supercritical or subcritical phases), x2 = 0.96	511
312.35 K, 7890 kPa, Fluid (supercritical or subcritical phases), x2 = 0.96	522
312.35 K, 7920 kPa, Fluid (supercritical or subcritical phases), x2 = 0.96	532
312.35 K, 7970 kPa, Fluid (supercritical or subcritical phases), x2 = 0.96	544
312.35 K, 8010 kPa, Fluid (supercritical or subcritical phases), x2 = 0.96	556
312.35 K, 8070 kPa, Fluid (supercritical or subcritical phases), x2 = 0.96	568
312.35 K, 8150 kPa, Fluid (supercritical or subcritical phases), x2 = 0.96	581
312.35 K, 8230 kPa, Fluid (supercritical or subcritical phases), x2 = 0.96	594
312.35 K, 8360 kPa, Fluid (supercritical or subcritical phases), x2 = 0.96	608
312.35 K, 8530 kPa, Fluid (supercritical or subcritical phases), x2 = 0.96	624
312.35 K, 8740 kPa, Fluid (supercritical or subcritical phases), x2 = 0.96	639
312.35 K, 9020 kPa, Fluid (supercritical or subcritical phases), x2 = 0.96	656
312.35 K, 9400 kPa, Fluid (supercritical or subcritical phases), x2 = 0.96	674
312.35 K, 9600 kPa, Fluid (supercritical or subcritical phases), x2 = 0.96	686
315.55 K, 7940 kPa, Fluid (supercritical or subcritical phases), x2 = 0.947	466
315.55 K, 7960 kPa, Fluid (supercritical or subcritical phases), x2 = 0.947	472
315.55 K, 7970 kPa, Fluid (supercritical or subcritical phases), x2 = 0.947	475
315.55 K, 8010 kPa, Fluid (supercritical or subcritical phases), x2 = 0.947	484
315.55 K, 8040 kPa, Fluid (supercritical or subcritical phases), x2 = 0.947	492
315.55 K, 8070 kPa, Fluid (supercritical or subcritical phases), x2 = 0.947	502
315.55 K, 8110 kPa, Fluid (supercritical or subcritical phases), x2 = 0.947	512
315.55 K, 8150 kPa, Fluid (supercritical or subcritical phases), x2 = 0.947	522
315.55 K, 8200 kPa, Fluid (supercritical or subcritical phases), x2 = 0.947	532
315.55 K, 8250 kPa, Fluid (supercritical or subcritical phases), x2 = 0.947	543
315.55 K, 8320 kPa, Fluid (supercritical or subcritical phases), x2 = 0.947	555
315.55 K, 8390 kPa, Fluid (supercritical or subcritical phases), x2 = 0.947	566
315.55 K, 8490 kPa, Fluid (supercritical or subcritical phases), x2 = 0.947	578
315.55 K, 8610 kPa, Fluid (supercritical or subcritical phases), x2 = 0.947	592
315.55 K, 8760 kPa, Fluid (supercritical or subcritical phases), x2 = 0.947	605
315.55 K, 8970 kPa, Fluid (supercritical or subcritical phases), x2 = 0.947	620
315.55 K, 9200 kPa, Fluid (supercritical or subcritical phases), x2 = 0.947	635
315.55 K, 9520 kPa, Fluid (supercritical or subcritical phases), x2 = 0.947	650
315.55 K, 9940 kPa, Fluid (supercritical or subcritical phases), x2 = 0.947	666
315.55 K, 10200 kPa, Fluid (supercritical or subcritical phases), x2 = 0.947	676
315.55 K, 10490 kPa, Fluid (supercritical or subcritical phases), x2 = 0.947	684
315.55 K, 10840 kPa, Fluid (supercritical or subcritical phases), x2 = 0.947	695
315.55 K, 11480 kPa, Fluid (supercritical or subcritical phases), x2 = 0.947	711
318.15 K, 7980 kPa, Fluid (supercritical or subcritical phases), x2 = 0.901	590
318.15 K, 8070 kPa, Fluid (supercritical or subcritical phases), x2 = 0.901	594
318.15 K, 8170 kPa, Fluid (supercritical or subcritical phases), x2 = 0.901	600
318.15 K, 8280 kPa, Fluid (supercritical or subcritical phases), x2 = 0.901	606
318.15 K, 8380 kPa, Fluid (supercritical or subcritical phases), x2 = 0.901	613
318.15 K, 8520 kPa, Fluid (supercritical or subcritical phases), x2 = 0.901	619
318.15 K, 8660 kPa, Fluid (supercritical or subcritical phases), x2 = 0.901	625
318.15 K, 8810 kPa, Fluid (supercritical or subcritical phases), x2 = 0.901	631
318.15 K, 8980 kPa, Fluid (supercritical or subcritical phases), x2 = 0.901	638
318.15 K, 9180 kPa, Fluid (supercritical or subcritical phases), x2 = 0.901	644
318.15 K, 9400 kPa, Fluid (supercritical or subcritical phases), x2 = 0.901	651
318.15 K, 9440 kPa, Fluid (supercritical or subcritical phases), x2 = 0.901	654
318.15 K, 9550 kPa, Fluid (supercritical or subcritical phases), x2 = 0.901	656
318.15 K, 9720 kPa, Fluid (supercritical or subcritical phases), x2 = 0.901	661
318.15 K, 9910 kPa, Fluid (supercritical or subcritical phases), x2 = 0.901	666
318.15 K, 10010 kPa, Fluid (supercritical or subcritical phases), x2 = 0.901	669
318.15 K, 10130 kPa, Fluid (supercritical or subcritical phases), x2 = 0.901	670
318.15 K, 10260 kPa, Fluid (supercritical or subcritical phases), x2 = 0.901	674
318.15 K, 10370 kPa, Fluid (supercritical or subcritical phases), x2 = 0.901	677
318.15 K, 10560 kPa, Fluid (supercritical or subcritical phases), x2 = 0.901	680
318.15 K, 10680 kPa, Fluid (supercritical or subcritical phases), x2 = 0.901	683
318.15 K, 10880 kPa, Fluid (supercritical or subcritical phases), x2 = 0.901	685
318.15 K, 11070 kPa, Fluid (supercritical or subcritical phases), x2 = 0.901	689
318.15 K, 11290 kPa, Fluid (supercritical or subcritical phases), x2 = 0.901	694
318.15 K, 11490 kPa, Fluid (supercritical or subcritical phases), x2 = 0.901	697
318.15 K, 11650 kPa, Fluid (supercritical or subcritical phases), x2 = 0.901	698
318.15 K, 11890 kPa, Fluid (supercritical or subcritical phases), x2 = 0.901	702
318.15 K, 12110 kPa, Fluid (supercritical or subcritical phases), x2 = 0.901	705
318.15 K, 12380 kPa, Fluid (supercritical or subcritical phases), x2 = 0.901	710
318.15 K, 12600 kPa, Fluid (supercritical or subcritical phases), x2 = 0.901	713
318.15 K, 12940 kPa, Fluid (supercritical or subcritical phases), x2 = 0.901	716
318.15 K, 13280 kPa, Fluid (supercritical or subcritical phases), x2 = 0.901	722
318.15 K, 13690 kPa, Fluid (supercritical or subcritical phases), x2 = 0.901	727
318.15 K, 13870 kPa, Fluid (supercritical or subcritical phases), x2 = 0.901	728
318.15 K, 14050 kPa, Fluid (supercritical or subcritical phases), x2 = 0.901	732
318.15 K, 14410 kPa, Fluid (supercritical or subcritical phases), x2 = 0.901	734
318.15 K, 14620 kPa, Fluid (supercritical or subcritical phases), x2 = 0.901	736
318.15 K, 14900 kPa, Fluid (supercritical or subcritical phases), x2 = 0.901	738
318.15 K, Liquid, Other PVT measurement, x2 = 0.901	585
323.15 K, 2500 kPa, Fluid (supercritical or subcritical phases), x2 = 0.214	607
